Measured values: patent US9580431B2, “Inhibitors of human immunodeficiency virus replication” (priority 2013, dated 2017)

Tested on: recombinant NL-Rluc virus
Assay: microbe, parasite or virus in culture
Type: cell-based, HIV
Settings: Human immunodeficiency virus 1, MT2, 120 h

Row | SMILES | EC50
1 | Cc1nc2cc(-n3cc(Cc4ccccc4)cn3)nn2c(N2CCC(C)(C)CC2)c1[C@H](OC(C)(C)C)C(=O)O [Example 33, (S)-2-(2-(4-Benzyl-1H-pyrazol-1-yl)-7-(4,4-dimethylpiperidin-1-yl)-5-methylpyrazolo[1,5-a]pyrimidin-6-yl)-2-(tert-butoxy)acetic acid] | 11 nM

Same assay, conditions: Human immunodeficiency virus 1, MT2, 120 h, NL-RLuc virus infecting MT-2 cells, 5 days of incubation, luciferase readout; at least 2 experiments; serum condition not given; read-out: EC50

Row | SMILES | EC50
2 | Cc1nc2cc(-n3cnc(Cc4ccccc4)c3)nn2c(N2CCC(C)(C)CC2)c1[C@H](OC(C)(C)C)C(=O)O [Example 34, (S)-2-(2-(4-Benzyl-1H-imidazol-1-yl)-7-(4,4-dimethylpiperidin-1-yl)-5-methylpyrazolo[1,5-a]pyrimidin-6-yl)-2-(tert-butoxy)acetic acid] | 26 nM
3 | Cc1nc2cc(-c3ncc(CCc4ccc(F)cc4)s3)nn2c(N2CCC(C)(C)CC2)c1[C@H](OC(C)(C)C)C(=O)O [Example 16, (S)-2-(tert-Butoxy)-2-(7-(4,4-dimethylpiperidin-1-yl)-2-(5-(4-fluorophenethyl)thiazol-2-yl)-5-methylpyrazolo[1,5-a]pyrimidin-6-yl)acetic acid] | 38 nM
4 | CC1=CCN(c2c([C@H](OC(C)(C)C)C(=O)O)c(C)nc3cc(-c4ncc(Cc5ccc(F)cc5)s4)nn23)CC1 [Example 19, (S)-2-(tert-Butoxy)-2-(2-(5-(4-fluorobenzyl)thiazol-2-yl)-5-methyl-7-(4-methyl-5,6-dihydropyridin-1(2H)-yl)pyrazolo[1,5-a]pyrimidin-6-yl)acetic acid] | 105 nM
5 | C=CC1(C)CCN(c2c([C@H](OC(C)(C)C)C(=O)O)c(C)nc3cc(-c4ncc(Cc5ccc(F)cc5)s4)nn23)CC1 [Example 23, (S)-2-(tert-Butoxy)-2-(2-(5-(4-fluorobenzyl)thiazol-2-yl)-5-methyl-7-(4-methyl-4-vinylpiperidin-1-yl)pyrazolo[1,5-a]pyrimidin-6-yl)acetic acid] | 12 nM
6 | Cc1nc2cc(-c3ccc(Cc4ccc(F)cc4)s3)nn2c(N2CCC(C)(C)CC2)c1[C@H](OC(C)(C)C)C(=O)O [Example 25, (S)-2-(tert-Butoxy)-2-(7-(4,4-dimethylpiperidin-1-yl)-2-(5-(4-fluorobenzyl)thiophen-2-yl)-5-methylpyrazolo[1,5-a]pyrimidin-6-yl)acetic acid] | 23 nM
7 | Cc1nc2cc(-c3ncc(Cc4ccc(F)cc4)s3)nn2c(C2CCC(C)(C)CC2)c1[C@H](OC(C)(C)C)C(=O)O [Example 11, (S)-2-(tert-Butoxy)-2-(7-(4,4-dimethylcyclohexyl)-2-(5-(4-fluorobenzyl)thiazol-2-yl)-5-methylpyrazolo[1,5-a]pyrimidin-6-yl)acetic acid] | 82 nM
8 | Cc1nc2cc(-c3cnn(Cc4ccccc4)c3)nn2c(N2CCC(C)(C)CC2)c1[C@H](OC(C)(C)C)C(=O)O [Example 39, (S)-2-(2-(1-Benzyl-1H-pyrazol-4-yl)-7-(4,4-dimethylpiperidin-1-yl)-5-methylpyrazolo[1,5-a]pyrimidin-6-yl)-2-(tert-butoxy)acetic acid] | 7 nM
9 | Cc1nc2cc(-c3ncc(Cc4ccc(F)cc4)o3)nn2c(-c2cc(F)c3c(c2C)CCCO3)c1[C@H](OC(C)(C)C)C(=O)O [Example 6, (2S)-2-(tert-Butoxy)-2-(7-(8-fluoro-5-methylchroman-6-yl)-2-(5-(4-fluorobenzyl)oxazol-2-yl)-5-methylpyrazolo[1,5-a]pyrimidin-6-yl)acetic acid] | 6 nM
10 | Cc1nc2cc(-c3ncc(Cc4ccc(F)cc4)s3)nn2c(N2CCC(C)(O)CC2)c1[C@H](OC(C)(C)C)C(=O)O [Example 18, (S)-2-(tert-Butoxy)-2-(2-(5-(4-fluorobenzyl)thiazol-2-yl)-7-(4-hydroxy-4-methylpiperidin-1-yl)-5-methylpyrazolo[1,5-a]pyrimidin-6-yl)acetic acid] | 143 nM
11 | Cc1cc(Cc2cnc(-c3cc4nc(C)c([C@H](OC(C)(C)C)C(=O)O)c(N5CCC(C)(C)CC5)n4n3)s2)ccc1F [Example 15, (S)-2-(tert-Butoxy)-2-(7-(4,4-dimethylpiperidin-1-yl)-2-(5-(4-fluoro-3-methylbenzyl)thiazol-2-yl)-5-methylpyrazolo[1,5-a]pyrimidin-6-yl)acetic acid] | 19 nM
12 | Cc1nc2cc(-c3nc4ccc(Cl)cc4n3C)nn2c(-c2cc(F)c3c(c2C)CCCO3)c1[C@H](OC(C)(C)C)C(=O)O [Example 3, (2S)-2-(tert-Butoxy)-2-(2-(6-chloro-1-methyl-1H-benzo[d]imidazol-2-yl)-7-(8-fluoro-5-methylchroman-6-yl)-5-methylpyrazolo[1,5-a]pyrimidin-6-yl)acetic acid] | 100 nM
13 | C=CCOc1ccccc1Cc1cnn(-c2cc3nc(C)c([C@H](OC(C)(C)C)C(=O)O)c(N4CCC(C)(OCC=C)CC4)n3n2)c1 [Example 37, (S)-2-(7-(4-(Allyloxy)-4-methylpiperidin-1-yl)-2-(4-(2-(allyloxy)benzyl)-1H -pyrazol-1-yl)-5-methylpyrazolo[1,5-a]pyrimidin-6-yl)-2-(tert-butoxy)acetic acid] | 11 nM
14 | CCC1(C)CCN(c2c([C@H](OC(C)(C)C)C(=O)O)c(C)nc3cc(-c4ncc(Cc5ccc(F)cc5)s4)nn23)CC1 [Example 17, (S)-2-(tert-Butoxy)-2-(7-(4-ethyl-4-methylpiperidin-1-yl)-2-(5-(4-fluorobenzyl)thiazol-2-yl)-5-methylpyrazolo[1,5-a]pyrimidin-6-yl)acetic acid] | 13 nM
15 | Cc1nc2cc(-c3ncc(-c4cccc(F)c4)s3)nn2c(-c2cc(F)c3c(c2C)CCCO3)c1[C@H](OC(C)(C)C)C(=O)O [Example 9, (2S)-2-(tert-Butoxy)-2-(7-(8-fluoro-5-methylchroman-6-yl)-2-(5-(3-fluorophenyl)thiazol-2-yl)-5-methylpyrazolo[1,5-a]pyrimidin-6-yl)acetic acid] | 28 nM
16 | Cc1nc2cc(-c3ncc(C(C)c4ccc(F)cc4)s3)nn2c(N2CCC(C)(C)CC2)c1[C@H](OC(C)(C)C)C(=O)O (stereo partly drawn) [Example 14, (2S)-2-(tert-Butoxy)-2-(7-(4,4-dimethylpiperidin-1-yl)-2-(5-(1-(4-fluorophenyl)ethyl)thiazol-2-yl)-5-methylpyrazolo[1,5-a]pyrimidin-6-yl)acetic acid] | 27 nM
17 | Cc1nc2cc(-c3ncc(Cc4ccc(F)cc4)s3)nn2c(N2CC=C(c3ccccc3)CC2)c1[C@H](OC(C)(C)C)C(=O)O [Example 20, (S)-2-(tert-Butoxy)-2-(2-(5-(4-fluorobenzyl)thiazol-2-yl)-5-methyl-7-(4-phenyl-5,6-dihydropyridin-1(2H)-yl)pyrazolo[1,5-a]pyrimidin-6-yl)acetic acid] | 877 nM
18 | Cc1nc2cc(-c3ncc(Cc4ccc(F)cc4)o3)nn2c(C2=CCC(C)(C)CC2)c1[C@H](OC(C)(C)C)C(=O)O [Example 12, (S)-2-(tert-Butoxy)-2-(7-(4,4-dimethylcyclohex-1-en-1-yl)-2-(5-(4-fluorobenzyl)oxazol-2-yl)-5-methylpyrazolo[1,5-a]pyrimidin-6-yl)acetic acid] | 13 nM
19 | Cc1nc2cc(-c3nc4cc(-c5ccccc5)ccc4[nH]3)nn2c(-c2cc(F)c3c(c2C)CCCO3)c1[C@H](OC(C)(C)C)C(=O)O [Example 4, (2S)-2-(tert-Butoxy)-2-(7-(8-fluoro-5-methylchroman-6-yl)-5-methyl-2-(5-phenyl-1H-benzo[d]imidazol-2-yl)pyrazolo[1,5-a]pyrimidin-6-yl)acetic acid] | 133 nM
20 | Cc1nc2cc(-n3ccc(Cc4ccccc4)n3)nn2c(N2CCC(C)(C)CC2)c1[C@H](OC(C)(C)C)C(=O)O [Example 36, (S)-2-(2-(3-Benzyl-1H-pyrazol-1-yl)-7-(4,4-dimethylpiperidin-1-yl)-5-methylpyrazolo[1,5-a]pyrimidin-6-yl)-2-(tert-butoxy)acetic acid] | 84 nM
21 | Cc1nc2cc(-c3ncc(Cc4ccc(F)cc4)s3)nn2c(N2CCC(C)(CO)CC2)c1[C@H](OC(C)(C)C)C(=O)O [Example 21, (S)-2-(tert-Butoxy)-2-(2-(5-(4-fluorobenzyl)thiazol-2-yl)-7-(4-(hydroxymethyl)-4-methylpiperidin-1-yl)-5-methylpyrazolo[1,5-a]pyrimidin-6-yl)acetic acid] | 75 nM

Same assay, conditions: NL-RLuc virus infecting MT-2 cells, 5 days of incubation, luciferase readout; at least 2 experiments; serum condition not given; read-out: EC50

Row | SMILES | EC50
22 | Cc1nc2cc(N3C(=O)OCC3Cc3ccccc3)nn2c(N2CCC(C)(C)CC2)c1[C@H](OC(C)(C)C)C(=O)O (stereo partly drawn) [Example 28, (2S)-2-(2-(4-Benzyl-2-oxooxazolidin-3-yl)-7-(4,4-dimethylpiperidin-1-yl)-5-methylpyrazolo[1,5-a]pyrimidin-6-yl)-2-(tert-butoxy)acetic acid] | 152 nM
23 | Cc1nc2cc(N3CCC(Oc4ccccc4)C3=O)nn2c(N2CCC(C)(C)CC2)c1[C@H](OC(C)(C)C)C(=O)O (stereo partly drawn) [Example 31, (2S)-2-(tert-Butoxy)-2-(7-(4,4-dimethylpiperidin-1 yl)-5-methyl-2-(2-oxo-3-phenoxypyrrolidin-1-yl)pyrazolo[1,5-a]pyrimidin-6-yl)acetic acid] | 813 nM
24 | Cc1nc2cc(N3CC(Cc4ccccc4)OC3=O)nn2c(N2CCC(C)(C)CC2)c1[C@H](OC(C)(C)C)C(=O)O (stereo partly drawn) [Example 29, (2S)-2-(2-(5-Benzyl-2-oxooxazolidin-3-yl)-7-(4,4-dimethylpiperidin-1-yl)-5-methylpyrazolo[1,5-a]pyrimidin-6-yl)-2-(tert-butoxy)acetic acid] | 6 nM
25 | Cc1nc2cc(N3C(=O)OCC3Cc3ccccc3)nn2c(N2CCC(C)(C)CC2)c1[C@H](OC(C)(C)C)C(=O)O (stereo partly drawn) [Example 27, (2S)-2-(2-(4-Benzyl-2-oxooxazolidin-3-yl)-7-(4,4-dimethylpiperidin-1-yl)-5-methylpyrazolo[1,5-a]pyrimidin-6-yl)-2-(tert-butoxy)acetic acid] | 478 nM
26 | Cc1nc2cc(N3CCC(Oc4ccccc4)C3=O)nn2c(N2CCC(C)(C)CC2)c1[C@H](OC(C)(C)C)C(=O)O (stereo partly drawn) [Example 32, (2S)-2-(tert-Butoxy)-2-(7-(4,4-dimethylpiperidin-1-yl)-5-methyl-2-(2-oxo-3-phenoxypyrrolidin-1-yl)pyrazolo[1,5-a]pyrimidin-6-yl)acetic acid] | 339 nM
